Structures are written as SMILES. Entries after “also recorded” stand apart in the source; their conditions may differ.

The test system of data set [1] is isolated (Langendorff) rat hearts. The data set is described as follows: Isolated perfused heart (Langendorff), hypoxic vs oxic uptake/retention. The note with it: for Hypoxic/Oxic Ratio (H/O): ^99m Tc complex (or ^123 I-IAZA), 20 min infusion, 15 min washout; for Normalised Hypoxic Retention: relative to ^3 H-misonidazole activity. The method, then: A 15-minute cold buffer washout period follows. y activity in the heart is monitored using a collimated NaI probe detector positioned over the heart.
Activity in hearts, relative to perfusate activity, is calculated for each nuclide and data evaluated for each compound for activity in hypoxic and oxic hearts (hypoxic:oxic ratio) and also relative to the 3 H-misonidazole activity (normalised retention) using Formula 1. [formula] Results

The nature of the next data set: Biodistribution in rats. The data set is classed as in vivo, male rats. The settings on record: i.v. The method, then: Biodistribution in Rats--Methods
The quantitative biodistribution was studied in male rats at 2 minutes, 1 hour and 4 hours post-injection
Rats under light anaesthesia were injected intravenously with 0.1 ml of test agent. Three rats were sacrificed (anaesthesia followed by exsanguination) at 2, 60 and 240 minutes, post-injection. The percentage of the injected dose in the excreta and organs and tissues was determined by dissection and assay for radioactivity in an automatic gamma counter.

The test system of the next data set is xanthine oxidase. The data set is described as follows: Xanthine oxidase (XOD) with hypoxanthine in PBS reduction test. The settings on record: ^99m Tc complex, HPLC. The data set is classed as biochemical. As for the experimental part: b) Xanthine Oxidase (XOD) with Hypoxanthine in Phosphate Buffered Saline (PBS)
Xanthine oxidase (16 mg) was weighed into a P6 vial. the vial was capped, oversealed and purged with nitrogen gas. Nitrogen purged phosphate buffered saline (1 ml) was added to the vial containing the xanthine oxidase.
Hypoxanthine (4.1 mg) was weighed into a P6 vial. The vial was capped, oversealed and purged with nitrogen gas. To the hypoxanthine was added (1 ml) of the xanthine oxidase in PBS.
1 ml of the ligand solution or 1 ml of the ^99m Tc-complex preparation was then added to the reducing mixture, shaken, and aliquots were taken at 20 minute time intervals.

Where [2] appears, read: 2 min post-injection, ^99m Tc complex.
Setting [3] is: 240 min post-injection (third printed value).
The mark [4] stands for this setting: second of two values, 60 or 240 min not assignable.

Consider `CC(=NO)C(C)(C)NCCCCNC(C)(C)C(Cn1ccnc1[N+](=O)[O-])=NO` [Compound II], for which, in data set [1], the “hypoxia selectivity / hypoxic/oxic ratio / hypoxic retention (in words)” value is “significantly greater than seen for other ^99m Tc test agents and ^123 I-IAZA; also recorded: greater than that for ^99m Tc-PnAO; also recorded: at least equivalent to ^123 I-IAZA”; the “Hypoxic/Oxic Ratio (H/O)” value amounted to 28; the “Normalised Hypoxic Retention” value stood at 5.1. The “normalised hypoxic retention, times greater than ^3 H misonidazole” value in data set [1] (isolated buffer perfused rat heart model) is reported as “at least 2 times”. In the data set “Biodistribution in rats” (2 min post-injection), this molecule displayed a Bladder/Urine of 1.0 percent injected dose, a Blood of 8.4 percent injected dose, a Gut of 13.4 percent injected dose and a Kidney of 13.1 percent injected dose. Besides, the Liver in the data set “Biodistribution in rats” (2 min post-injection) turned out to be 15.5 percent injected dose. In the data set “Biodistribution in rats” (setting [2]), the Muscle amounted to 26.1 percent injected dose. In the data set “Biodistribution in rats” (60 min post-injection), this molecule displayed a Gut of 40.0 percent injected dose and a Muscle of 6.6 percent injected dose. In the data set “Biodistribution in rats” (setting [3]), this molecule displayed a Muscle of 3.1 percent injected dose. Also, the Gut in “Biodistribution in rats” (240 min post-injection) was determined as 49.9 percent injected dose. In the data set “Biodistribution in rats” (setting [4]), the Blood amounted to 1.3 percent injected dose, the Kidney is recorded as 1.4 percent injected dose and the Liver turned out to be 11.4 percent injected dose. Also, the “Xanthine oxidase reduction test result” value with xanthine oxidase was “positive”.
Take `CC(=NO)C(C)(C)NCCCCCNC(C)(C)C(Cn1ccnc1[N+](=O)[O-])=NO` [Compound IV, 3,3,11,11-tetramethyl-1-(2-nitro-1H-imidazo-1-yl)-4,10-diazatridecan-2,12-dione dioxime]: in data set [1], the “hypoxia selectivity / hypoxic/oxic ratio / hypoxic retention (in words)” value is given as “very little hypoxia selectivity”, the “Hypoxic/Oxic Ratio (H/O)” value is on record as 2.4 and the “Normalised Hypoxic Retention” value was 0.49. Moreover, in “Biodistribution in rats” (2 min post-injection), the Bladder/Urine is listed as 0.4 percent injected dose, the Blood was determined as 10.6 percent injected dose, the Gut came out at 13.7 percent injected dose and the Kidney stood at 12.1 percent injected dose. Further, the Liver in the data set “Biodistribution in rats” (2 min post-injection) is on record as 15.6 percent injected dose. The molecule also came in with a Muscle in the data set “Biodistribution in rats” (setting [2]) of 24.3 percent injected dose. Besides, in “Biodistribution in rats” (60 min post-injection), the Gut was found to be 50.9 percent injected dose and the Muscle is 8.2 percent injected dose. In the data set “Biodistribution in rats” (setting [3]), the Muscle was found to be 2.0 percent injected dose. The molecule also had a Gut in the data set “Biodistribution in rats” (240 min post-injection) of 60.0 percent injected dose. In the data set “Biodistribution in rats” (setting [4]), this molecule returned a Blood of 1.0 percent injected dose, a Kidney of 2.7 percent injected dose and a Liver of 2.5 percent injected dose. In addition, the “Xanthine oxidase reduction test result” value with xanthine oxidase is listed as “positive”.
In the case of `CC(=NO)C(C)(C)NCCCNC(C)(C)C(Cn1ccnc1[N+](=O)[O-])=NO` [Compound V, 3,3,9,9-Tetramethyl-1-(2-nitro-1H-imidazo-1-yl)-4,8-diazaundecane-2,10-dione dioxime, reference compound], in data set [1], the “Hypoxic/Oxic Ratio (H/O)” value stood at 10 and the “Normalised Hypoxic Retention” value is 8.4. In the data set “Biodistribution in rats” (2 min post-injection), this molecule registered a Bladder/Urine of 0.3 percent injected dose, a Blood of 7.2 percent injected dose, a Gut of 11.1 percent injected dose and a Kidney of 4.1 percent injected dose. Besides, the Liver in “Biodistribution in rats” (2 min post-injection) is given as 25.1 percent injected dose. In “Biodistribution in rats” (setting [2]), this molecule came in with a Muscle of 29.6 percent injected dose. In “Biodistribution in rats” (60 min post-injection), this molecule returned a Gut of 45.9 percent injected dose and a Muscle of 4.2 percent injected dose. In “Biodistribution in rats” (setting [3]), this molecule had a Muscle of 2.4 percent injected dose. The Gut in “Biodistribution in rats” (240 min post-injection) is on record as 59.3 percent injected dose. In “Biodistribution in rats” (setting [4]), this molecule yielded a Blood of 4.2 percent injected dose, a Kidney of 3.2 percent injected dose and a Liver of 21.5 percent injected dose. The “Xanthine oxidase reduction test result” value in the data set with xanthine oxidase is “positive”.
For `CCC(=NO)C(C)(C)NCCCCNC(C)(C)C(CC)=NO` [Compound VIII, 5,10-diaza-4,4,11,11-tetramethyltetradecan-3,12-dione dioxime], in data set [1], the “Hypoxic/Oxic Ratio (H/O)” value turned out to be 34 and the “Normalised Hypoxic Retention” value was found to be 2.2. Besides, in “Biodistribution in rats” (2 min post-injection), the Bladder/Urine is listed as 0.6 percent injected dose, the Blood is given as 9.0 percent injected dose, the Gut came out at 13.9 percent injected dose and the Kidney is 7.8 percent injected dose. This molecule gave a Liver in the data set “Biodistribution in rats” (2 min post-injection) of 13.6 percent injected dose. This molecule also had a Muscle in the data set “Biodistribution in rats” (setting [2]) of 29.7 percent injected dose. Besides, in “Biodistribution in rats” (60 min post-injection), the Gut worked out at 36.2 percent injected dose and the Muscle amounted to 7.4 percent injected dose. For the same molecule, in the data set “Biodistribution in rats” (setting [3]), the Muscle worked out at 2.4 percent injected dose. Besides, in the data set “Biodistribution in rats” (240 min post-injection), the Gut is reported as 46.7 percent injected dose. Moreover, in “Biodistribution in rats” (setting [4]), the Blood turned out to be 1.8 percent injected dose, the Kidney was 2.5 percent injected dose and the Liver is listed as 13.1 percent injected dose.
Take `COCC(=NO)C(C)(COC)NCCCCNC(C)(COC)C(COC)=NO` (stereo not drawn) [Compound XV, 3,10-Bis(methoxymethyl)-4,9-diaza-1,12-dimethoxy-3,10-dimethyldodecan-2,11-dione dioxime]: in data set [1], the “Hypoxic/Oxic Ratio (H/O)” value turned out to be 1.2 and the “Normalised Hypoxic Retention” value stood at 1.4. In the data set “Biodistribution in rats” (2 min post-injection), this molecule yielded a Bladder/Urine of 1.2 percent injected dose, a Blood of 12.8 percent injected dose, a Gut of 9.5 percent injected dose and a Kidney of 14.2 percent injected dose. Moreover, the Liver in the data set “Biodistribution in rats” (2 min post-injection) is reported as 10.2 percent injected dose. The Muscle in the data set “Biodistribution in rats” (setting [2]) was found to be 27.4 percent injected dose. Besides, in “Biodistribution in rats” (60 min post-injection), the Gut amounted to 21.3 percent injected dose and the Muscle was 5.7 percent injected dose. In “Biodistribution in rats” (setting [3]), this molecule had a Muscle of 1.9 percent injected dose. Also, the Gut in “Biodistribution in rats” (240 min post-injection) is listed as 32.1 percent injected dose. In addition, in “Biodistribution in rats” (setting [4]), the Blood turned out to be 1.7 percent injected dose, the Kidney worked out at 6.2 percent injected dose and the Liver is 6.3 percent injected dose.

The record behind these values is US5997843A, “Radiometal complexes that localise in hypoxic tissue” (priority 1993, dated 1999).
